{"source": "patent US20200397795A1", "about": "“PROPHYLACTIC TREATMENT OF VENOUS THROMBOEMBOLISM” (JANSSEN PHARMACEUTICALS, INC., priority 2019, published 2020)", "test_system": "venous thromboembolism (VTE) in patients hospitalized for acute medical illness", "experiment": "MAGELLAN (Study 1): efficacy of oral rivaroxaban 10 mg OD 35 days vs sc enoxaparin 40 mg OD 10 days then placebo", "format": "in vivo", "method": "The objective of Study 1 (MAGELLAN or MAGELLAN Study) was to compare efficacy and safety of venous thromboembolism (VTE) prophylaxis with oral rivaroxaban 10 mg once daily administered for 35±4 days (hereafter referred to as 35 days or Day 35) to subcutaneous enoxaparin 40 mg once daily (OD) administered for 10±4 days (hereafter referred to as 10 days or Day 10) in men and women aged 40 years or above, who have been hospitalized for a medical illness.\nDiagnosis and main criteria for inclusion in Study 1 was men and women 40 years or above and at risk for VTE being hospitalized for acute medical illness conditions, including: heart failure (New York Heart Association [NYHA] class III or IV); active cancer (e.g., admitted for chemotherapy or for the treatment of a complication of active cancer); acute ischemic stroke; acute infectious and inflammatory diseases, including acute rheumatic diseases; and acute respiratory insufficiency. Also at least one additional risk factor for VTE, including: severe varicosis (varicosities); chronic venous insufficiency; history of cancer; history of deep vein thrombosis (DVT) or pulmonary embolism (PE); history of heart failure (NYHA class III or IV); thrombophilia (hereditary or acquired); recent major surgery (6-12 weeks); recent serious trauma (6-12 weeks); hormone replacement therapy; advanced age greater than or equal to 75 years; morbid obesity (body mass index (BMI) 35 kg/m^2 or higher); and acute infectious disease contributing to hospitalization.\nThe study was conducted in a prospective, randomized, double-blind, double dummy, active comparator-controlled, multicenter and multinational design. There were 8101 subjects were randomized at 556 study centers in 52 countries to one of the two treatment groups. Of the 8101 randomized subjects, 4050 were randomized to active rivaroxaban and 4051 were randomized to active enoxaparin.\nPrimary Endpoints: The primary efficacy variable was a composite of the number of events of: asymptomatic proximal DVT in lower extremity detected by mandatory bilateral lower extremity venous ultrasonography; symptomatic DVT in lower extremity, proximal or distal; symptomatic, non-fatal PE; and VTE-related death defined as either a well-documented fatal PE, or sudden death with no other plausible explanation. The two primary efficacy endpoints were (i) test of superiority at Day 35 (Days 29-41, inclusive) and (ii) test of non-inferiority at Day 10 (Days 6-15, inclusive).\nSecondary Endpoints: The first major secondary efficacy endpoint was defined as a composite of the test of superiority at Day 35 with component of VTE-related death substituted by all-cause mortality, up to Day 35. The second major efficacy secondary efficacy endpoint was the test for superiority at Day 10 using the same composite endpoint as the Day 10 non-inferiority test.\nFor both primary efficacy endpoints, the relative risk ratio (rivaroxaban/enoxaparin) with respect to the incidences of the primary efficacy endpoint was estimated based on a stratified estimator using Mantel-Haenszel weights (based on sample sizes by geographic region). The corresponding asymptotic 2-sided 95% confidence interval based on the approximation to the normal distribution was determined. Sensitivity analyses were performed for the primary efficacy endpoints.\nThe primary efficacy variable was a composite of the number of events of (1) asymptomatic proximal DVT in lower extremity detected by mandatory bilateral lower extremity venous ultrasonography; (2) symptomatic DVT in lower extremity, proximal or distal; (3) symptomatic, nonfatal PE; and (4) VTE-related death. […]", "key": {"[1]": {"settings": "Day 10 + 5, PP Day 10 plus major and clinically relevant bleeds"}, "[2]": {"settings": "Day 10 + 5, per protocol Day 10 analysis set"}, "[3]": {"settings": "Day 10 + 5 up to Day 35 + 6, mITT (Day 10 to Day 35) analysis set"}, "[4]": {"settings": "Day 10 + 5 up to Day 35 + 6, mITT (Day 10 to Day 35) analysis set, listed as enoxaparin"}, "[5]": {"settings": "Day 35 + 6, mITT Day 35 analysis set"}, "[6]": {"settings": "Day 35 + 6, mITT Day 35 analysis set, listed as enoxaparin"}, "[7]": {"settings": "Day 35 + 6, mITT Day 35 plus major and clinically relevant bleeds"}}, "data": [{"substance": "Enoxaparin", "values": [{"measurement": "Major vascular events (CV death, acute myocardial infarction, or acute ischemic stroke), incidence", "setting": "Day 10", "result": 1.0, "unit": "%"}, {"measurement": "Symptomatic VTE excluding VTE-related death, incidence", "setting": "Day 10", "result": 0.3, "unit": "%"}, {"measurement": "Symptomatic VTE including death, incidence", "setting": "Day 10", "result": 0.6, "unit": "%"}, {"measurement": "Net clinical benefit component: asymptomatic lower proximal deep vein thrombosis", "setting": "[1]", "result": "71 (2.4%)"}, {"measurement": "Net clinical benefit component: clinically relevant non-major bleeding", "setting": "[1]", "result": "32 (1.1%)"}, {"measurement": "Net clinical benefit component: death (pulmonary embolism)", "setting": "[1]", "result": "6 (0.2%)"}, {"measurement": "Net clinical benefit component: major bleeding", "setting": "[1]", "result": "4 (0.1%)"}, {"measurement": "Net clinical benefit component: symptomatic deep vein thrombosis in lower extremity", "setting": "[1]", "result": "6 (0.2%)"}, {"measurement": "Net clinical benefit component: symptomatic non-fatal pulmonary embolism", "setting": "[1]", "result": "2 (<0.1%)"}, {"measurement": "Net clinical benefit component: venous thromboembolism related death", "setting": "[1]", "result": "6 (0.2%)"}, {"measurement": "Net clinical benefit, any event, incidence", "setting": "[1]", "result": "118 (3.9%)"}, {"measurement": "Net clinical benefit, any event, incidence", "setting": "Day 10 + 5, PP Day 10 plus major and clinically relevant bleeds, listed as enoxaparin", "result": 3.9, "unit": "%"}, {"measurement": "Asymptomatic proximal deep vein thrombosis in lower extremity, incidence", "setting": "[2]", "result": "71 (2.4%)"}, {"measurement": "Death (pulmonary embolism cannot be excluded), incidence", "setting": "[2]", "result": "6 (0.2%)"}, {"measurement": "Primary efficacy composite, any event, incidence", "setting": "[2]", "result": "82 (2.7%)"}, {"measurement": "Symptomatic deep vein thrombosis in lower extremity, incidence", "setting": "[2]", "result": "6 (0.2%)"}, {"measurement": "Symptomatic non-fatal pulmonary embolism, incidence", "setting": "[2]", "result": "2 (<0.1%)"}, {"measurement": "Venous thromboembolism related death, incidence", "setting": "[2]", "result": "6 (0.2%)"}, {"measurement": "Primary efficacy composite, any event, incidence", "setting": "Day 10 + 5, per protocol Day 10 analysis set, listed as enoxaparin", "result": 2.7, "unit": "%"}, {"measurement": "Asymptomatic proximal deep vein thrombosis in lower extremity, incidence", "setting": "[3]", "result": "89 (2.9%)"}, {"measurement": "Death (pulmonary embolism cannot be excluded), incidence", "setting": "[3]", "result": "15 (0.5%)"}, {"measurement": "Death (pulmonary embolism), incidence", "setting": "[3]", "result": 0, "unit": "%"}, {"measurement": "Symptomatic deep vein thrombosis in lower extremity, incidence", "setting": "[3]", "result": "7 (0.2%)"}, {"measurement": "Symptomatic non-fatal pulmonary embolism, incidence", "setting": "[3]", "result": "10 (0.3%)"}, {"measurement": "Venous thromboembolism related death, incidence", "setting": "[3]", "result": "15 (0.5%)"}, {"measurement": "Primary efficacy composite, any event, incidence", "setting": "Day 10 + 5 up to Day 35 + 6, mITT (Day 10 to Day 35) analysis set, rivaroxaban-placebo phase", "result": "114 (3.8%)"}, {"measurement": "Primary efficacy composite, any event, incidence", "setting": "Day 10 + 5 up to Day 35 + 6, mITT (Day 10 to Day 35) analysis set, rivaroxaban-placebo phase, listed as enoxaparin", "result": 3.8, "unit": "%"}, {"measurement": "Asymptomatic proximal deep vein thrombosis in lower extremity, incidence", "setting": "[4]", "result": 2.9, "unit": "%"}, {"measurement": "Venous thromboembolism related death, incidence", "setting": "[4]", "result": 0.5, "unit": "%"}, {"measurement": "Major vascular events, incidence", "setting": "Day 35", "result": 1.6, "unit": "%"}, {"measurement": "Symptomatic VTE excluding VTE-related death, incidence", "setting": "Day 35", "result": 0.7, "unit": "%"}, {"measurement": "Symptomatic VTE including death, incidence", "setting": "Day 35", "result": 1.4, "unit": "%"}, {"measurement": "Asymptomatic proximal deep vein thrombosis in lower extremity, incidence", "setting": "[5]", "result": "133 (4.4%)"}, {"measurement": "Death (pulmonary embolism cannot be excluded), incidence", "setting": "[5]", "result": "29 (0.9%)"}, {"measurement": "Death (pulmonary embolism), incidence", "setting": "[5]", "result": "1 (<0.1%)"}, {"measurement": "Primary efficacy composite, any event, incidence", "setting": "[5]", "result": "175 (5.7%)"}, {"measurement": "Symptomatic deep vein thrombosis in lower extremity, incidence", "setting": "[5]", "result": "15 (0.5%)"}, {"measurement": "Symptomatic non-fatal pulmonary embolism, incidence", "setting": "[5]", "result": "14 (0.5%)"}, {"measurement": "Venous thromboembolism related death, incidence", "setting": "[5]", "result": "30 (1.0%)"}, {"measurement": "Asymptomatic proximal deep vein thrombosis in lower extremity, incidence", "setting": "[6]", "result": 4.4, "unit": "%"}, {"measurement": "Primary efficacy composite, any event, incidence", "setting": "[6]", "result": 5.7, "unit": "%"}, {"measurement": "Venous thromboembolism related death, incidence", "setting": "[6]", "result": 1.0, "unit": "%"}, {"measurement": "Net clinical benefit component: asymptomatic lower proximal deep vein thrombosis", "setting": "[7]", "result": "133 (4.3%)"}, {"measurement": "Net clinical benefit component: clinically relevant non-major bleeding", "setting": "[7]", "result": "52 (1.7%)"}, {"measurement": "Net clinical benefit component: death (pulmonary embolism cannot be excluded)", "setting": "[7]", "result": "29 (0.9%)"}, {"measurement": "Net clinical benefit component: death (pulmonary embolism)", "setting": "[7]", "result": "1 (<0.1%)"}, {"measurement": "Net clinical benefit component: major bleeding", "setting": "[7]", "result": "15 (0.5%)"}, {"measurement": "Net clinical benefit component: symptomatic deep vein thrombosis in lower extremity", "setting": "[7]", "result": "15 (0.5%)"}, {"measurement": "Net clinical benefit component: symptomatic non-fatal pulmonary embolism", "setting": "[7]", "result": "14 (0.5%)"}, {"measurement": "Net clinical benefit component: venous thromboembolism related death", "setting": "[7]", "result": "30 (1.0%)"}, {"measurement": "Net clinical benefit, any event, incidence", "setting": "[7]", "result": "240 (7.8%)"}, {"measurement": "Net clinical benefit, any event, incidence", "setting": "Day 35 + 6, mITT Day 35 plus major and clinically relevant bleeds, listed as enoxaparin", "result": 7.8, "unit": "%"}, {"measurement": "Composite endpoint including all-cause mortality, incidence", "setting": "Day 35, mITT Day 35 expanded", "result": 9.2, "unit": "%"}, {"measurement": "All-cause mortality, incidence", "setting": "Day 90", "result": 6.2, "unit": "%"}, {"measurement": "Major vascular events, incidence", "setting": "Day 90", "result": 2.8, "unit": "%"}, {"measurement": "Symptomatic VTE excluding VTE-related death, incidence", "setting": "Day 90", "result": 0.9, "unit": "%"}, {"measurement": "Symptomatic VTE including death, incidence", "setting": "Day 90", "result": 1.9, "unit": "%"}]}]}
